Target: T1, sGC α1/β1 heterodimer stably expressed in CHO-K1 cell line (CHO-K1/sGC) (Homo sapiens, UniProt Q02108+Q02153)
T1 construct: expressed in transfected cells
T1 sequence (Q02108 1-690): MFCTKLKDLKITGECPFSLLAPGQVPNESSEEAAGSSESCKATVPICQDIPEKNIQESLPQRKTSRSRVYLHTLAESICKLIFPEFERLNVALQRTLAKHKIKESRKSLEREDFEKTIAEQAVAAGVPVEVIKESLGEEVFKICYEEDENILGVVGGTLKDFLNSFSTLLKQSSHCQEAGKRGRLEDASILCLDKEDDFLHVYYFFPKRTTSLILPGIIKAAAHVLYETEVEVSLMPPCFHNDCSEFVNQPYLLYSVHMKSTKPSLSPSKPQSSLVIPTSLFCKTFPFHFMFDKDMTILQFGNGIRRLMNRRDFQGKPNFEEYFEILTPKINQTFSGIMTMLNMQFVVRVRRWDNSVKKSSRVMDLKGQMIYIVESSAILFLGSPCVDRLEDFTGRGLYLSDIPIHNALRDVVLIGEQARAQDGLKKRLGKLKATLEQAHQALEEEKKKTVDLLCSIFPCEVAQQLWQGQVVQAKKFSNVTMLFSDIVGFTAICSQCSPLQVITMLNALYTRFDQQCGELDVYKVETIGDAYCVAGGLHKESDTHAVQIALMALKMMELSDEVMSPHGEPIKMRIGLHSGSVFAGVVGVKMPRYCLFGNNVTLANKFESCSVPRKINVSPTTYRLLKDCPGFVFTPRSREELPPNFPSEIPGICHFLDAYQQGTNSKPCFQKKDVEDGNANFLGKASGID
T1 sequence (Q02153 1-619): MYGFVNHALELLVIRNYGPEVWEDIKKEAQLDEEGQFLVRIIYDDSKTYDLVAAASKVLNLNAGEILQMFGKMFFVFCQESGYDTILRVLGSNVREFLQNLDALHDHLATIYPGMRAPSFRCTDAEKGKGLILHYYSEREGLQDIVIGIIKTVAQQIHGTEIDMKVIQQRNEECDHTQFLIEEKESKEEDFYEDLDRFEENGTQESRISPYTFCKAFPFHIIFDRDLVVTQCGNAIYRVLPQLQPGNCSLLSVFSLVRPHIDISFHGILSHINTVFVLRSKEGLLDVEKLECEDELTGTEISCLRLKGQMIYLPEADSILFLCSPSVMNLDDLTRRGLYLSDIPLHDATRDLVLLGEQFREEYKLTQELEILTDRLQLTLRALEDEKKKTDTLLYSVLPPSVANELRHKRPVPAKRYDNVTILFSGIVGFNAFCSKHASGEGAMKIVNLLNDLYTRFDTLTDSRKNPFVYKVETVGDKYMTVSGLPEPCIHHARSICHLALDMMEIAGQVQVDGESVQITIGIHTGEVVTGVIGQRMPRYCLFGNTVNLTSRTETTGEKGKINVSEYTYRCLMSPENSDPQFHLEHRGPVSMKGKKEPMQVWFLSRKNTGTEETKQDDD
Test: Cell-based sGC Functional Assay (CASA Assay), cGMP generation
Conditions: CHO-K1/sGC cells, 1 hr at 37° C., cGMP by HTRF, 4P fit; presence or absence of 1 μM DETA-NO not given; read-out: IP (nM) (inflection point)
Summary of the method: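 Readout is HTRF cGMP in lysates, normalised to the maximal response of reference sGC activator Compound A (100%), with a 4P fit giving IP and fold induction. Cells were CHO-K1/sGC (human α1/β1) in EBSS buffer with IBMX, incubated 1 hr at 37° C with compound. Run with and without 1 μM DETA-NO; final DMSO 2.5%.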

Structure (SMILES)	EC50
Cc1ccc(C2(C)C(=O)Nc3nc(-c4cn5ncnc5c(CCCC(F)(F)F)n4)nc(N)c32)nc1 (stereo not drawn) [Example 46B, 4-amino-5-methyl-5-(5-methylpyridin-2-yl)-2-(8-(4,4,4-trifluorobutyl)-[1,2,4]triazolo[1,5-a]pyrazin-6-yl)-5H-pyrrolo[2,3-d]pynmidin-6(7H)-one]	10.1 nM
CC1(c2ccc(C#N)cn2)C(=O)Nc2nc(-c3cn4ncnc4c(CCCC(F)(F)F)n3)nc(N)c21 (stereo not drawn) [Example 48A, 6-(4-amino-5-methyl-6-oxo-2-(8-(4,4,4-trifluorobutyl)-[1,2,4]triazolo[1,5-a]pyrazin-6-yl)-6,7-dihydro-5H-pyrrolo[2,3-d]pyrimidin-5-yl)nicotinonitrile]	77.9 nM
CC1(c2cnc(C(F)(F)F)cn2)C(=O)Nc2nc(-c3cn4ncnc4c(CCCC(F)(F)F)n3)nc(N)c21 (stereo not drawn) [Example 50B, 4-amino-5-methyl-2-(8-(4,4,4-trifluorobutyl)-[1,2,4]triazolo[1,5-a]pyrazin-6-yl)-5-(5-(trifluoromethyl)pyrazin-2-yl)-5H-pyrrolo[2,3-d]pyrimidin-6(7H)-one]	150 nM
CCCc1nc(-c2nc(N)c3c(n2)NC(=O)C3(c2ccc(C(F)(F)F)cn2)C2CC2)cn2ncnc12 (stereo not drawn) [Example 56A, 4-amino-5-cyclopropyl-2-(8-propyl-[1,2,4]triazolo[1,5-a]pyrazin-6-yl)-5-(5-(trifluoromethyl)pyridin-2-yl)-5H-pyrrolo[2,3-d]pyrimidin-6(7H)-one]	384 nM
CCCc1nc(-c2nc(N)c3c(n2)NC(=O)C3(c2ccc(Cl)cn2)C2CC2)cn2ncnc12 (stereo not drawn) [Example 57A, 4-amino-5-(5-chloropyridin-2-yl)-5-cyclopropyl-2-(8-propyl-[1,2,4]triazolo[1,5-a]pyrazin-6-yl)-5H-pyrrolo[2,3-d]pynmidin-6(7H)-one]	577 nM
CCCc1nc(-c2nc(N)c3c(n2)NC(=O)C3(c2ccc(F)c(F)c2)C2CC2)cn2ncnc12 (stereo not drawn) [Example 58A, 4-amino-5-cyclopropyl-5-(3,4-difluorophenyl)-2-(8-propyl-[1,2,4]triazolo[1,5-a]pyrazin-6-yl)-5H-pyrrolo[2,3-d]pyrimidin-6(7H)-one]	242 nM
CCCc1nc(-c2nc(N)c3c(n2)NC(=O)C3(c2ccc(F)cn2)C2CC2)cn2ncnc12 (stereo not drawn) [Example 59A, 4-amino-5-cyclopropyl-5-(5-fluoropyridin-2-yl)-2-(8-propyl-[1,2,4]triazolo[1,5-a]pyrazin-6-yl)-5H-pyrrolo[2,3-d]pyrimidin-6(7H)-one]	263 nM

The remaining lines, values ahead:

EC50	Structure (SMILES)
63.2 nM	CCCc1nc(-c2nc(N)c3c(n2)NC(=O)[C@@]3(C)c2ccc(F)cc2)cn2ncnc12 [Example 52A, (S)-4-amino-5-(4-fluorophenyl)-5-methyl-2-(8-propyl-[1,2,4]triazolo[1,5-a]pyrazin-6-yl)-5,7-dihydro-6H-pyrrolo[2,3-d]pyrimidin-6-one]
26.9 nM	CCCc1nc(-c2nc(N)c3c(n2)NC(=O)C3(C)c2ccc(Cl)cc2)cn2ncnc12 (stereo not drawn) [Example 53A, 4-amino-5-(4-chlorophenyl)-5-methyl-2-(8-propyl-[1,2,4]triazolo[1,5-a]pyrazin-6-yl)-5H-pyrrolo[2,3-d]pyrimidin-6(7H)-one]
318 nM	CCCc1nc(-c2nc(N)c3c(n2)NC(=O)C3(C)c2ccc(F)cn2)cn2ncnc12 (stereo not drawn) [Example 54B, 4-amino-5-(5-fluoropyridin-2-yl)-5-methyl-2-(8-propyl-[1,2,4]triazolo[1,5-a]pyrazin-6-yl)-5H-pyrrolo[2,3-d]pyrimidin-6(7H)-one]
22.6 nM	CCCCc1nc(-c2nc(N)c3c(n2)NC(=O)[C@@]3(C)c2ccc(F)cc2)cn2ncnc12 [Example 60A, (S)-4-amino-2-(8-butyl-[1,2,4]triazolo[1,5-a]pyrazin-6-yl)-5-(4-fluorophenyl)-5-methyl-5,7-dihydro-6H-pyrrolo[2,3-d]pyrimidin-6-one]
9.7 nM	CCCCc1nc(-c2nc(N)c3c(n2)NC(=O)C3(C)c2ccc(F)cn2)cn2ncnc12 (stereo not drawn) [Example 61B, 4-amino-2-(8-butyl-[1,2,4]triazolo[1,5-d]pyrazin-6-yl)-5-(5-fluoropyridin-2-yl)-5-methyl-5H-pyrrolo[2,3-d]pyrimidin-6(7H)-one]

From US9822130B2, “Triazolo-pyrazinyl derivatives useful as soluble guanylate cyclase activators” (Merck Sharp & Dohme Corp., priority 2014, dated 2017)
